{"source": "patent US11267965B2", "about": "“Polymeric materials for biomedical applications” (Aleo BME, Inc., priority 2015, dated 2022)", "key": {"PC-12 cells": {"system": "PC-12 cells", "experiment": "PC12 cell neurite outgrowth assay", "format": "cell-based, rat"}, "[1]": {"system": "MAP-2 protein expression in PC12 cells", "experiment": "Western blot analysis of microtubule-associated protein-2 (MAP-2) in PC12 cells", "format": "cell-based, rat", "conditions": "14 days"}, "Schwann cells [2]": {"system": "Schwann cells", "experiment": "Quantification of global DNA methylation", "format": "cell-based", "conditions": "second day of culture"}, "PC12 cells": {"system": "PC12 cells", "experiment": "Quantification of global DNA methylation", "format": "cell-based, rat", "conditions": "second day of culture"}, "Schwann cells [3]": {"system": "Schwann cells", "experiment": "Schwann cell migration, transwell model", "format": "cell-based", "conditions": "4 hr migration, compared to 4, 100 and 200 mg/L folate"}, "Schwann cells [4]": {"system": "Schwann cells", "experiment": "Schwann cell migration, microchannel-based migration assay (live cell imaging)", "conditions": "left reservoir 4 mg/L folate, right reservoir 50 mg/L folate; channel width 200 μm"}}, "data": [{"smiles": "Nc1nc2ncc(CNc3ccc(C(=O)N[C@@H](CCC(=O)O)C(=O)O)cc3)nc2c(=O)[nH]1", "note": "[folic acid]", "values": [{"measurement": "neurite outgrowth (average neurite length)", "setting": "PC-12 cells; 50-100 mg/L folate with 50 ng/mL NGF, day 7, control medium 1.3 mg/L folate <100 μm", "result": "> 150", "unit": "μm"}, {"measurement": "folic acid concentration with highest neurite outgrowth", "setting": "PC-12 cells; day 3 of culture, neural differentiation medium with 5 ng/ml neural growth factor", "result": 50, "unit": "mg/L"}, {"measurement": "PC-12 neurite outgrowth rate", "setting": "PC-12 cells; folic acid supplemented medium", "result": "promote PC-12 neurite outgrowth rate in a dose-dependent manner"}, {"measurement": "optimal folic acid supplement concentration for promoting PC-12 differentiation and neurite outgrowth", "setting": "PC-12 cells; within the concentrations investigated", "result": "50 to 100", "unit": "mg/L"}, {"measurement": "MAP-2 protein expression relative to control medium (1.3 mg/L folate)", "setting": "[1]; 50 mg/L folate, in the presence of NGF (50 ng/mL)", "result": 2.56, "unit": "folds"}, {"measurement": "MAP-2 protein expression relative to control sample (1.3 mg/L folate)", "setting": "[1]; 50 and 100 mg/L folate, in the absence of NGF", "result": "2.22-2.30 folds"}, {"measurement": "folate concentration with highest global DNA methylation", "setting": "Schwann cells [2]", "result": 50, "unit": "mg/L"}, {"measurement": "folate concentration with highest global DNA methylation", "setting": "PC12 cells", "result": 50, "unit": "mg/L"}, {"measurement": "folate concentration of medium toward which the highest number of Schwann cells migrated", "setting": "Schwann cells [3]", "result": 50, "unit": "mg/L"}, {"measurement": "Schwann cell migration direction in microchannels", "setting": "Schwann cells [4]", "result": "migration of Schwann cell from low folate medium to high folate medium"}]}]}
